Measurements from patent US10000471B2, “Pyrazole P38 map kinase inhibitors” (Respivert Limited, priority 2010, dated 2018).

How the values were obtained:
[1] = test system: IL-8 release in d-U937 cells; assay: LPS-induced IL-8 release in d-U937 cells; assay type: cell-based, human; settings: Homo sapiens, dU937
Outline: (§1)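 Sandwich ELISA of TNFα and IL-8 in supernatants after 4 hr 0.1 μg/mL LPS (E. coli O111:B4) challenge of U937 cells differentiated with PMA 100 ng/ml for 48–72 hr, compound added 2 hr beforehand. IL-8: IC50 from inhibition versus vehicle; TNFα: REC50 from inhibition as percentage of 10 μg/mL BIRB796 effect.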

[2] = test system: TNFα release in THP-1 cells; assay: LPS-induced TNFα release in THP-1 cells; assay type: cell-based, human; settings: Homo sapiens
Outline: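 IC50 derived from concentration-response of TNFα inhibition relative to vehicle, with TNFα quantified by sandwich ELISA in supernatants. THP-1 cells were challenged 4 hr with LPS (E. coli, 3 μg/mL).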

p38 MAPKγ (MAPK12) = molecular target: T1, p38 MAPKγ (MAPK12) (Homo sapiens, UniProt P53778); assay: Enzyme inhibition assay (FRET, Z-LYTE), p38 MAPKγ; assay type: biochemical; settings: read-out: Enzyme Inhibition IC50 p38γ
T1 construct: purchased Invitrogen
T1 sequence (P53778 1-367): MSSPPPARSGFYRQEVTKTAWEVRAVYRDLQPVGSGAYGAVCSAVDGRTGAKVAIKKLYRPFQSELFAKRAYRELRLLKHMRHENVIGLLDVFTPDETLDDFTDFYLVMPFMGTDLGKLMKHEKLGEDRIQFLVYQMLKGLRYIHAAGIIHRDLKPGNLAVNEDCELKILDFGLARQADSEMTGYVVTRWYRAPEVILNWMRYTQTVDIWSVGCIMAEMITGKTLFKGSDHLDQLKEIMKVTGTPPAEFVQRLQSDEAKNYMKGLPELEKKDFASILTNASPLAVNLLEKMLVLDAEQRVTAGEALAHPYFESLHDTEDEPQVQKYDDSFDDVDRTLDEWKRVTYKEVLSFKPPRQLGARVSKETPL
Outline: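 Z-LYTE FRET readout: after 1 h kinase reaction (ATP 100 μM, peptide 2 μM) following 2 h RT enzyme–compound preincubation in HEPES, protease cleaves only unphosphorylated peptide. Percent inhibition from donor/acceptor ratio relative to control; IC50 fitted from the curve.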

[3] = molecular target: T2, p38 MAPKα isoform (MAPK14) (Homo sapiens, UniProt Q16539); assay: Enzyme inhibition assay (FRET, Z-LYTE), p38 MAPKα via MAPKAP-K2 activation; assay type: biochemical; settings: read-out: Enzyme Inhibition IC50 p38α
T2 construct: purchased Invitrogen
T2 sequence (Q16539 whole entry, canonical isoform): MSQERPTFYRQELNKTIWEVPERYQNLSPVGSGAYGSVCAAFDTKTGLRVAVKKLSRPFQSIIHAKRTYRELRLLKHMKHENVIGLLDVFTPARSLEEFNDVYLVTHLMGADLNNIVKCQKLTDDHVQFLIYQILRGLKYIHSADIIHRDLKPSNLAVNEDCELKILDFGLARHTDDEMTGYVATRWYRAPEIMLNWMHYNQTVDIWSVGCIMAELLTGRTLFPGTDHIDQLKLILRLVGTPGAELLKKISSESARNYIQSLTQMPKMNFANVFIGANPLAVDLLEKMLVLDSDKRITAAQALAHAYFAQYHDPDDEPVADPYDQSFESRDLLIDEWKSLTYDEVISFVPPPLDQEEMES
Outline: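 Z-LYTE FRET format, in which protease cleaves only non-phosphorylated peptide, read after 1 h development. Compound was mixed with p38 MAPKα for 2 h at RT, and inhibition was gauged from MAPKAP-K2 activation/phosphorylation rather than directly. Percent inhibition against an uninhibited control was fitted to give IC50.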

[4] = test system: ICAM-1 induction in BEAS2B cells; assay: Poly I:C-induced ICAM-1 induction in BEAS2B cells; assay type: cell-based, human; settings: Homo sapiens, BEAS-2B, read-out: PolyIC/ICAM1 IC50 BEAS2B
Outline: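 IC50 reflects inhibition of cell-surface ICAM-1 relative to vehicle, read by ELISA (OD450 against 655 nm) and divided by crystal violet OD595 for cell number. Readings were taken 18 hr after transfection of 1 μg/mL poly I:C into BEAS2B cells. Compound was added 2 hr before stimulation.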

[5] = test system: TNFα release in d-U937 cells; assay: LPS-induced TNFα release in d-U937 cells; assay type: cell-based, human; settings: Homo sapiens, dU937, relative to 10 μg/mL BIRB796, read-out: LPS/TNFα REC50 d-U937
Outline: as §1

[6] = test system: Differentiated U937 cells; assay: Cell viability MTT assay; assay type: cell-based, human; settings: negative = apparent increase in viability; for MTT Assay (Viability) 4 h d-U937, percentage loss of cell viability: 4 hr in 5% FCS; for MTT Assay (Viability) 24 h d-U937, percentage loss of cell viability: 24 h in 10% FCS
Outline: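 Differentiated U937 cells pre-incubated with compound either 4 hr in 5% FCS or 24 h in 10% FCS, then 1 hr MTT. Formazan dissolved in DMSO, absorbance at 550 nm. Percentage viability loss relative to 0.5% DMSO vehicle; apparent increases appear as negative percentages.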

Row | Compound | IC50 [1] [nM] | IC50 [2] [nM] | IC50 (p38 MAPKγ (MAPK12)) [nM] | IC50 [3] [nM] | EC50 [5] [nM] | IC50 [4] [nM] | MTT Assay (Viability) 4 h d-U937, percentage loss of cell viability [6] [%] | MTT Assay (Viability) 24 h d-U937, percentage loss of cell viability [6] [%]
1 | CNC(=O)Nc1cc(Oc2ccc(NC(=O)Nc3cc(C(C)(C)C)nn3-c3ccc(CO)cc3)c3cccnc23)ccn1 [Example 62] | 25.8 | 7.1 | 135 | 37.2 | 17.6 | 70.8 | −13.4 | −22.9
2 | COc1ccc(-n2nc(C(C)(C)C)cc2NC(=O)Nc2ccc(Oc3ccnc(NC(=O)NCCN4CCOCC4)c3)c(Cl)c2Cl)cc1 [Example 68, 1-(4-(4-(3-(3-tert-butyl-1-(4-methoxyphenyl)-1H-pyrazol-5-yl)ureido)-2,3-dichlorophenoxy)pyridin-2-yl)-3-(2-morpholinoethyl)urea] | 10.3 | 1.4 | 137 | 18.2 | 0.2 | 3.3 | 11.3 | 73.3
3 | CC(C)(C)c1cc(NC(=O)Nc2ccc(Oc3ccnc(NC(=O)NCCN4CCOCC4)c3)c(Cl)c2Cl)n(-c2ccc(CO)cc2)n1 [Example 71, 1-(4-(4-(3-(3-tert-butyl-1-(4-hydroxymethylphenyl)-1H-pyrazol-5-yl)ureido)-2,3-dichlorophenoxy)pyridin-2-yl)-3-(2-morpholinoethyl) urea] | 1.4 | 0.7 | 60.4 | 19.4 | 1.1 | 1.9 | −20.5 | 84.3
4 | Cc1ccc(-n2nc(C(C)(C)C)cc2NC(=O)Nc2ccc(Oc3ccnc(NC(=O)N4CCCC4)c3)c(Cl)c2Cl)cc1 [Example 72, N-(4-(4-(3-(3-tert-butyl-1-p-tolyl-1H-pyrazol-5-yl)ureido)-2,3-dichlorophenoxy)pyridin-2-yl) pyrrolidine-1-carboxamide] | 0.2 | 0.6 | 315 | 41.3 | 1.9 | 7.5 | −13.7 | 26.9
5 | CNC(=O)Nc1cc(Oc2ccc(NC(=O)Nc3cc(C4(C)CCCCC4)nn3-c3ccc(C)cc3)c(Cl)c2Cl)ccn1 [Example 73, 1-(3-(1-methylcyclohexyl)-1-p-tolyl-1H-pyrazol-5-yl)-3-(2,3-dichloro-4-(2-(3-methylureido)pyridin-4-yloxy)phenyl)urea] | 1.9 | 12.8 | 243 | 151 | 1.7 | 1300 | −27.3 | 12.3
6 | Cc1ccc(-n2nc(C3(C)CCCCC3)cc2NC(=O)Nc2ccc(Oc3ccnc(NC(=O)N4CCCC4)c3)c(Cl)c2Cl)cc1 [Example 74, N-(4-(2,3-dichloro-4-(3-(3-(1-methylcyclohexyl)-1-p-tolyl-1H-pyrazol-5-yl)ureido)phenoxy)pyridin-2-yl)pyrrolidine-1-carboxamide] | 2.7 | 11.5 | 744 | 328 | 0.5 | 4.6 | 1.2 | 5.5

Second part, led by results:

Row | IC50 [1] [nM] | IC50 [2] [nM] | IC50 (p38 MAPKγ (MAPK12)) [nM] | IC50 [3] [nM] | EC50 [5] [nM] | Compound | IC50 [4] [nM] | MTT Assay (Viability) 4 h d-U937, percentage loss of cell viability [6] [%] | MTT Assay (Viability) 24 h d-U937, percentage loss of cell viability [6] [%]
7 | 11.4 | 0.5 | 140 | 28.9 | 0.3 | Cc1ccc(-n2nc(C(C)(C)C)cc2NC(=O)Nc2ccc(Oc3ccnc(NC(=O)N(C)C)c3)c(Cl)c2Cl)cc1 [Example 63] | 3 | −29.7 | 51.6
8 | 15.1 | 0.4 | 58 | 13.3 | 0.3 | COc1ccc(-n2nc(C(C)(C)C)cc2NC(=O)Nc2ccc(Oc3ccnc(NC(=O)N(C)C)c3)c(Cl)c2Cl)cc1 [Example 64, 3-(4-(4-(3-(3-tert-butyl-1-(4-methoxyphenyl)-1H-pyrazol-5-yl)ureido)-2,3-dichlorophenoxy)pyridin-2-yl)-1,1-dimethylurea] | 1.5 | −37.2 | 37.2
9 | 3.8 | 2.7 | 122 | 37.7 | 2 | COc1ccc(-n2nc(C(C)(C)C)cc2NC(=O)Nc2ccc(Oc3ccnc(NC(=O)NC4CC4)c3)c(Cl)c2Cl)cc1 [Example 65, 1-(4-(4-(3-(3-tert-butyl-1-(4-methoxyphenyl)-1H-pyrazol-5-yl)ureido)-2,3-dichlorophenoxy)pyridin-2-yl)-3-cyclopropylurea] | 17.5 | −4.7 | 20.2
10 | 4.9 | 1.1 | 45 | 21.6 | 0.3 | COc1ccc(-n2nc(C(C)(C)C)cc2NC(=O)Nc2ccc(Oc3ccnc(NC(=O)NCCO)c3)c(Cl)c2Cl)cc1 [Example 66, 1-(4-(4-(3-(3-tert-butyl-1-(4-methoxyphenyl)-1H-pyrazol-5-yl)ureido)-2,3-dichlorophenoxy)pyridin-2-yl)-3-(2-hydroxyethyl)urea] | 5.5 | 15.0 | 90.3
11 | 5.8 | 1.2 | 67.8 | 27.9 | 1.7 | COCCNC(=O)Nc1cc(Oc2ccc(NC(=O)Nc3cc(C(C)(C)C)nn3-c3ccc(OC)cc3)c(Cl)c2Cl)ccn1 [Example 67, 1-(4-(4-(3-(3-tert-butyl-1-(4-methoxyphenyl)-1H-pyrazol-5-yl)ureido)-2,3-dichlorophenoxy)pyridin-2-yl)-3-(2-methoxyethyl)urea] | 2 | −11.4 | 40.9
12 | 4.2 | 1.4 | 68.3 | 15.2 | 0.6 | COc1ccc(-n2nc(C(C)(C)C)cc2NC(=O)Nc2ccc(Oc3ccnc(NC(=O)NCCCn4ccnc4)c3)c(Cl)c2Cl)cc1 [Example 69, 1-(3-(1H-imidazol-1-yl)propyl)-3-(4-(4-(3-(3-tert-butyl-1-(4-methoxyphenyl)-1H-pyrazol-5-yl)ureido)-2,3-dichlorophenoxy)pyridin-2-yl)urea] | 22.2 | 8.8 | 75.5
13 | 5.7 | 2.4 | 30.1 | 3.5 | 1.5 | CN(C)CCNC(=O)Nc1cc(Oc2ccc(NC(=O)Nc3cc(C(C)(C)C)nn3-c3ccc(CO)cc3)c(Cl)c2Cl)ccn1 [Example 70, 1-(3-tert-butyl-1-(4-hydroxymethylphenyl)-1H-pyrazol-5-yl)-3-(2,3-dichloro-4-(2-(3-(2-(dimethylamino)ethyl)ureido)pyridin-4-yloxy)phenyl)urea] | 10.1 | 6.1 | 94.1
